Patent US11963995B2, “Methods comprising desmopressin” (Ferring B.V., priority 2008, dated 2024)

Legend:
[1] = system: adult patients with nocturia; experiment: Change in urine volume (nocturnal, total) from baseline to Day 28 (Part I); assay type: in vivo, human; settings: ITT, Part I
Method: As used herein, the term “nocturnal urine” refers to the total urine volume from 5 minutes after bedtime until rising in the morning, including the first void within 30 minutes of rising.
(§1) All treatments were administered orally once per night approximately 1 hour prior to bedtime; subjects were instructed to limit their fluid intake prior to drug self-administration. […] Randomization was to be stratified by age (<65, ≥65 years) and by the absence/presence of nocturnal polyuria, defined as a ratio of nighttime urine volume/24-hour urine volume 33%. To achieve the desired number of subjects within each stratum, enrollment of subjects in a particular stratum (age and/or presence/absence of nocturnal polyuria) could be halted. If this was necessary, all investigative sites were to be informed in writing at least 1 week in advance to stop screening in a population of subjects.
Changes in urine volume from baseline to the end of Day 28 were also assessed and included herein.
(§2) Missing values concerning number of nocturnal voids at Day 8, Day 15, Day 22, and Day 28 in Part I were imputed using last observation carried forward (LOCF). Missing values concerning sleep disturbance and urine volume (for average 24-hour urine volume and average nocturnal urine volume) were not imputed.

[2] = system: adult patients with nocturia; experiment: Duration of initial period of undisturbed sleep, change from baseline to Day 28 (Part I); assay type: in vivo, human; settings: for Change from baseline to final visit (Day 28) in duration of initial period of undisturbed sleep, mean / Change from baseline to final visit (Day 28) in duration of initial period of undisturbed sleep, median: ITT, Part I; for median increase in initial period of sleep: baseline to Day 28
Method: As used herein, the term “first sleep period” refers to the time elapsed from bedtime to either first void or morning arising.
as §1
The secondary efficacy endpoints were: (1) durability of effect achieved in Part I; (2) change in initial period of undisturbed sleep, defined as the elapsed time in minutes from going to bed with the intention of sleeping to the time of awakening for the first nocturnal void; and (3) change in duration of total sleep time. Additional secondary endpoints were collected, e.g., change in nocturia-specific quality of life as assessed by scores on the International Consultation on Incontinence Modular Questionnaire—Noctuira and the Noctuira Quality of Life Questionnaire, change in quality of sleep as assessed by the global score of the Pittsburgh Sleep Quality Index, and change in overall quality of life as assessed by the short form—12v2. A description of the additional secondary efficacy endpoints and their accompanying data are not provided herein.
as §2

[3] = females over 65 years of age, 10 ug dose
[4] = females over 65 years of age, 25 ug dose
[5] = females over 65 years of age, 50 ug dose
[6] = females over 65 years of age, 100 ug dose
[7] = 10 ug, all males with monitoring
[8] = 10 ug, females over 50 years of age
[9] = 10 ug, females over 65 years of age
[10] = 25 ug, all males with monitoring
[11] = 25 ug, females over 50 years of age
[12] = 25 ug, females over 65 years of age
[13] = 50 ug, all males with monitoring
[14] = 50 ug, females over 50 years of age
[15] = 50 ug, females over 65 years of age
[16] = 100 ug, all males with monitoring
[17] = 100 ug, females over 50 years of age
[18] = 100 ug, females over 65 years of age

NC(=O)CC[C@@H]1NC(=O)[C@H](Cc2ccccc2)NC(=O)[C@H](Cc2ccc(O)cc2)NC(=O)CCSSC[C@@H](C(=O)N2CCC[C@H]2C(=O)N[C@H](CCCN=C(N)N)C(=O)NCC(N)=O)NC(=O)[C@H](CC(N)=O)NC1=O [desmopressin]
Change from baseline to final visit (Day 28) of nocturnal urine volume, median ([1]; all males, 50 ug dose): -246 mL
Change from baseline to final visit (Day 28) of nocturnal urine volume, mean ([1]; all males, 100 ug dose): -306 mL
Change from baseline to final visit (Day 28) of nocturnal urine volume, median ([1]; all males, 100 ug dose): -270 mL
Change from baseline to final visit (Day 28) of nocturnal urine volume, mean [1, 3]: -91 mL
Change from baseline to final visit (Day 28) of nocturnal urine volume, median [1, 3]: -54 mL
Change from baseline to final visit (Day 28) of nocturnal urine volume, mean [1, 4]: -372 mL
Change from baseline to final visit (Day 28) of nocturnal urine volume, median [1, 4]: -383 mL
Change from baseline to final visit (Day 28) of nocturnal urine volume, mean [1, 5]: -208 mL
Change from baseline to final visit (Day 28) of nocturnal urine volume, median [1, 5]: -203 mL
Change from baseline to final visit (Day 28) of nocturnal urine volume, mean [1, 6]: -323 mL
Change from baseline to final visit (Day 28) of nocturnal urine volume, median [1, 6]: -285 mL
Change from baseline to final visit (Day 28) in duration of initial period of undisturbed sleep, mean ([2]; 10 ug, all females): 54 min
Change from baseline to final visit (Day 28) in duration of initial period of undisturbed sleep, median ([2]; 10 ug, all females): 46 min
Change from baseline to final visit (Day 28) in duration of initial period of undisturbed sleep, mean ([2]; 10 ug, all groups): 51 min
Change from baseline to final visit (Day 28) in duration of initial period of undisturbed sleep, median ([2]; 10 ug, all groups): 51 min
Change from baseline to final visit (Day 28) in duration of initial period of undisturbed sleep, mean [2, 7]: 54 min
Change from baseline to final visit (Day 28) in duration of initial period of undisturbed sleep, median [2, 7]: 59 min
Change from baseline to final visit (Day 28) in duration of initial period of undisturbed sleep, mean ([2]; 10 ug, all males): 48 min
Change from baseline to final visit (Day 28) in duration of initial period of undisturbed sleep, median ([2]; 10 ug, all males): 56 min
Change from baseline to final visit (Day 28) in duration of initial period of undisturbed sleep, mean [2, 8]: 33 min
Change from baseline to final visit (Day 28) in duration of initial period of undisturbed sleep, median [2, 8]: 27 min
Change from baseline to final visit (Day 28) in duration of initial period of undisturbed sleep, mean [2, 9]: 18 min
Change from baseline to final visit (Day 28) in duration of initial period of undisturbed sleep, median [2, 9]: 46 min
Change from baseline to final visit (Day 28) in duration of initial period of undisturbed sleep, mean ([2]; 25 ug, all females): 113 min
Change from baseline to final visit (Day 28) in duration of initial period of undisturbed sleep, median ([2]; 25 ug, all females): 95 min
Change from baseline to final visit (Day 28) in duration of initial period of undisturbed sleep, mean ([2]; 25 ug, all groups): 83 min
Change from baseline to final visit (Day 28) in duration of initial period of undisturbed sleep, median ([2]; 25 ug, all groups): 62 min
Change from baseline to final visit (Day 28) in duration of initial period of undisturbed sleep, mean [2, 10]: 57 min
Change from baseline to final visit (Day 28) in duration of initial period of undisturbed sleep, median [2, 10]: 54 min
Change from baseline to final visit (Day 28) in duration of initial period of undisturbed sleep, mean ([2]; 25 ug, all males): 61 min
Change from baseline to final visit (Day 28) in duration of initial period of undisturbed sleep, median ([2]; 25 ug, all males): 55 min
median increase in initial period of sleep ([2]; 25 μg): approximately 1 hour
Change from baseline to final visit (Day 28) in duration of initial period of undisturbed sleep, mean [2, 11]: 122 min
Change from baseline to final visit (Day 28) in duration of initial period of undisturbed sleep, median [2, 11]: 96 min
Change from baseline to final visit (Day 28) in duration of initial period of undisturbed sleep, mean [2, 12]: 131 min
Change from baseline to final visit (Day 28) in duration of initial period of undisturbed sleep, median [2, 12]: 113 min
Change from baseline to final visit (Day 28) in duration of initial period of undisturbed sleep, mean ([2]; 50 ug, all females): 98 min
Change from baseline to final visit (Day 28) in duration of initial period of undisturbed sleep, median ([2]; 50 ug, all females): 70 min
Change from baseline to final visit (Day 28) in duration of initial period of undisturbed sleep, mean ([2]; 50 ug, all groups): 85 min
Change from baseline to final visit (Day 28) in duration of initial period of undisturbed sleep, median ([2]; 50 ug, all groups): 63 min
Change from baseline to final visit (Day 28) in duration of initial period of undisturbed sleep, mean [2, 13]: 64 min
Change from baseline to final visit (Day 28) in duration of initial period of undisturbed sleep, median [2, 13]: 59 min
Change from baseline to final visit (Day 28) in duration of initial period of undisturbed sleep, mean ([2]; 50 ug, all males): 72 min
Change from baseline to final visit (Day 28) in duration of initial period of undisturbed sleep, median ([2]; 50 ug, all males): 55 min
median increase in initial period of sleep ([2]; 50 μg): approximately 1 hour
Change from baseline to final visit (Day 28) in duration of initial period of undisturbed sleep, mean [2, 14]: 83 min
Change from baseline to final visit (Day 28) in duration of initial period of undisturbed sleep, median [2, 14]: 63 min
Change from baseline to final visit (Day 28) in duration of initial period of undisturbed sleep, mean [2, 15]: 42 min
Change from baseline to final visit (Day 28) in duration of initial period of undisturbed sleep, median [2, 15]: 30 min
Change from baseline to final visit (Day 28) in duration of initial period of undisturbed sleep, mean ([2]; 100 ug, all females): 114 min
Change from baseline to final visit (Day 28) in duration of initial period of undisturbed sleep, median ([2]; 100 ug, all females): 93 min
Change from baseline to final visit (Day 28) in duration of initial period of undisturbed sleep, mean ([2]; 100 ug, all groups): 107 min
Change from baseline to final visit (Day 28) in duration of initial period of undisturbed sleep, median ([2]; 100 ug, all groups): 96 min
Change from baseline to final visit (Day 28) in duration of initial period of undisturbed sleep, mean [2, 16]: 108 min
Change from baseline to final visit (Day 28) in duration of initial period of undisturbed sleep, median [2, 16]: 116 min
Change from baseline to final visit (Day 28) in duration of initial period of undisturbed sleep, mean ([2]; 100 ug, all males): 100 min
Change from baseline to final visit (Day 28) in duration of initial period of undisturbed sleep, median ([2]; 100 ug, all males): 101 min
Change from baseline to final visit (Day 28) in duration of initial period of undisturbed sleep, mean [2, 17]: 108 min
Change from baseline to final visit (Day 28) in duration of initial period of undisturbed sleep, median [2, 17]: 89 min
Change from baseline to final visit (Day 28) in duration of initial period of undisturbed sleep, mean [2, 18]: 81 min
Change from baseline to final visit (Day 28) in duration of initial period of undisturbed sleep, median [2, 18]: 70 min
